Here are results for 16 compounds from ChEMBL document CHEMBL1122867, “Inhibition of human leukocyte elastase, porcine pancreatic elastase, and chymotrypsin by elasnin and other 4-hydroxy-2-pyrones” (J Med Chem, 1985).

In one series the target is T1, Neutrophil elastase (Homo sapiens, UniProt P08246).
T1 sequence (P08246 whole entry): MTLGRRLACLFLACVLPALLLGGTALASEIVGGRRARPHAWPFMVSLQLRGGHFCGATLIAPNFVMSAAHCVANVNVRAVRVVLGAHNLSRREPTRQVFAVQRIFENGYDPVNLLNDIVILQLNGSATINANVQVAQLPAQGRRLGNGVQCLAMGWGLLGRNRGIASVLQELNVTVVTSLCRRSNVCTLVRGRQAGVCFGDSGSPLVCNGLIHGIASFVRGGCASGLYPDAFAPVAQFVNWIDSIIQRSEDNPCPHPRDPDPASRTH
As to the kind of experiment: Inhibitory activity against human leukocyte elastase (HL elastase) expressed as inhibitory constant.

Series [1] deals with Chymotrypsin-like elastase family member 1 (Sus scrofa, UniProt P00772). As to the kind of experiment: Inhibitory activity against porcine pancreatic elastase (PP elastase) expressed as inhibitory constant.
Series [2] in a line: Partition coefficient (logP) (octanol/saline). The class given is physicochemical.

Sequence of Chymotrypsin-like elastase family member 1 (P00772 whole entry): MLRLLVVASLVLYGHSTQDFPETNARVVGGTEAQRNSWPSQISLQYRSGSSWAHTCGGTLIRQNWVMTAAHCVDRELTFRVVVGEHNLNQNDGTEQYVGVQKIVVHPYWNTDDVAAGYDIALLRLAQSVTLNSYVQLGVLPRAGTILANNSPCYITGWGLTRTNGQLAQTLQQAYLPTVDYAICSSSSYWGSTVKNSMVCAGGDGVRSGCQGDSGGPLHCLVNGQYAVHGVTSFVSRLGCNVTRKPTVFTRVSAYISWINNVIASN

With `CCCCCC(=O)C(CCCC)c1oc(=O)c(CCCC)c(O)c1CCCC` (stereo unspecified), the Ki (commonly a dissociation constant, usually derived from enzyme kinetics or from competition with a known ligand) on Neutrophil elastase is 93.3 µM; in series [1], 69.2 µM. The log partition coefficient (logP) – broadly, a log measure of how a compound divides between an organic and an aqueous phase – in series [2] was found to be 2.52.

For the compound `Cc1c(CC(=O)c2ccccc2)oc(=O)c(C)c1O`, the inhibition constant (Ki) at Neutrophil elastase is 6030 µM; in series [1] it was 3240 µM. In series [2], this compound gave a logP of 0.73.

Turning to `C/C=C(\c1ccccc1)c1oc(=O)c(CCCC)c(O)c1CCCC`, the inhibition constant Ki at Neutrophil elastase was 363 µM; in series [1], 141 µM. This compound also yielded a logP in series [2] of 1.39.

With `Cc1cc(O)cc(=O)o1` [4-HYDROXY-6-METHYLPYRAN-2-ONE], the inhibitory constant (Ki) at Neutrophil elastase was 8130 µM; in series [1], 3090 µM. Further, the logP in series [2] was determined as 0.5.

`CCCCc1c(C)oc(O)c(CCCC)c1=O`: the Ki on Neutrophil elastase was 646 µM; in series [1], 562 µM. Further, the lipophilicity (logP) in series [2] came to 0.79.

Consider `CCCCc1c(C2OC2C)oc(=O)c(CCCC)c1OC(C)=O` (stereo unspecified), for which the Ki at Neutrophil elastase was 339 µM; in series [1], 316 µM. Further, in series [2], the logP turned out to be 2.17.

Take `Cc1c(O)cc(CC(=O)c2ccccc2)oc1=O`: the Ki on Neutrophil elastase was 977 µM; in series [1], 2140 µM. For the same compound, the logP in series [2] is 0.78.

As to `CCCCc1c(C(CCCC)C(=O)c2ccccc2)oc(=O)c(CCCC)c1O` (stereo unspecified), the Ki at Neutrophil elastase was 95.5 µM; in series [1], 21.4 µM. For the same compound, the log partition coefficient (logP) in series [2] was found to be 1.21.

For the compound `CCCCc1c(CC(C)=O)oc(=O)c(CCCC)c1O`, the inhibition constant (Ki) at Neutrophil elastase is 490 µM; in series [1], 741 µM. The same compound showed a logP in series [2] of 1.74.

`CCCCc1c(CC(C)O)oc(=O)c(CCCC)c1OC(C)=O` (stereo unspecified): the Ki at Neutrophil elastase was 347 µM; in series [1], 1070 µM. This compound showed a logP in series [2] of 1.92.

In the case of `O=C(Cc1cc(=O)cc(O)o1)c1ccccc1`, the Ki on Neutrophil elastase is 10000 µM. In series [2], this compound came in with a logP of 0.43.

Take `Cc1cc(O)c(C)c(=O)o1`: the Ki at Neutrophil elastase is 6310 µM; in series [1], 3890 µM. Moreover, in series [2], the logP stood at 0.74.

Regarding `CCCCc1c(CC(C)=O)oc(=O)c(CCCC)c1OC(C)=O`, the Ki was 288 µM at Neutrophil elastase and 251 µM in series [1]. The compound further returned a lipophilicity (logP) in series [2] of 2.82.

As for `CCCCCCC(C=O)(CCCC)c1oc(=O)c(CCCC)c(O)c1CCCC` (stereo unspecified), the Ki at Neutrophil elastase was 151 µM; in series [1], 15.1 µM. For the same compound, in series [2], the logP came to 1.52.

Regarding `CCCCCC(=O)C(CCCC)c1oc(=O)c(CCCC)c(OC(C)=O)c1CCCC` (stereo unspecified), the affinity in series [1], expressed as Ki, was 8.13 µM. The lipophilicity (logP) in series [2] was found to be 3.53.

Regarding `Cc1oc(=O)c(C)c(O)c1C`, the figures for the Ki (on Neutrophil elastase; in series [1]) were 4900 µM and 21900 µM, respectively. Also, the logP in series [2] is 0.36.
